In ChEMBL document CHEMBL1142801, “Bradykinin B1 antagonists: SAR studies in the 2,3-diaminopyridine series” (Bioorg Med Chem Lett, 2005):

Columns and labels:
[1] = Partition coefficient (logP); conditions: octanol/water
[2] = target: T1, B1 bradykinin receptor (Homo sapiens, UniProt P46663); assay: Binding affinity against Human bradykinin receptor B1
T1 sequence (P46663 whole entry): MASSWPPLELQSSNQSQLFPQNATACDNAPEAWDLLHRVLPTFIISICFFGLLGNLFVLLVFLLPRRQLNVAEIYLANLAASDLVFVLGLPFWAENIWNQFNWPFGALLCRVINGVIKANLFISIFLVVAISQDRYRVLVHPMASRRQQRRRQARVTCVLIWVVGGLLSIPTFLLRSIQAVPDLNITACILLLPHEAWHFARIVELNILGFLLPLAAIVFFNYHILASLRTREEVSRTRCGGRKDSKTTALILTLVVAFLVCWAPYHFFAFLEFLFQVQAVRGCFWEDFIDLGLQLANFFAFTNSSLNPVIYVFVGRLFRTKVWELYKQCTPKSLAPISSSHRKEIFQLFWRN

[3] = Volume of distribution was determined in Sprague Dawley rats; format: ADME, organism-based; conditions: rat, in vivo
[4] = Bioavailability of compound upon oral administration of 10 mg/kg (dose) in Sprague Dawley rat; format: ADME, organism-based; conditions: in vivo
[5] = Protein binding using 10% human serum; format: ADME; conditions: for fraction unbound: 10% human serum, read-out: Protein binding (converted)
[6] = Clearance in Sprague Dawley rats; format: ADME, organism-based; conditions: rat, in vivo
[7] = Half life in Sprague Dawley rats; format: ADME; conditions: rat, in vivo

SMILES	logP ([1]; logP)	Ki [2] [nM]	fraction unbound [5]	other results
COC(=O)c1ccccc1C1CCC(CNc2nccc(C)c2NC(=O)CC#N)CC1 (stereo unspecified)	2.7	385	–	–
COC(=O)N1CCCCC1c1ccc(CNc2nccc(C)c2NC(=O)CC#N)cc1 (stereo unspecified)	–	> 5000	–	–
COC(=O)C1CCCCN1c1ccc(CNc2nccc(C)c2NC(=O)CC#N)cc1 (stereo unspecified)	2.7	> 5000	0.22	–
COC(=O)c1ccccc1N1CCC(C)(CNc2nccc(C)c2NC(=O)CC#N)CC1	2.6	3500	0.1	–
COC(=O)c1ccccc1N1CCC(O)(CNc2nccc(C)c2NC(=O)CC#N)CC1	–	> 5000	0.35	Vd [3]: 0.24 L/kg; bioavailability [4]: 22%; clearance [6]: 2.2 mL/min/kg; half-life [7]: 3 h
COC(=O)C1CCCN1c1ccc(CNc2nccc(C)c2NC(=O)CC#N)cc1 (stereo unspecified)	–	> 5000	–	–
COC(=O)c1cccn1-c1ccc(CNc2nccc(C)c2NC(=O)CC#N)cc1	2.4	250	0.19	–
COC(=O)C1C2CCC(C2)C1c1ccc(CNc2nccc(C)c2NC(=O)CC#N)cc1 (racemic)	–	730	–	–
COC(=O)C1C2CCC(CC2)C1c1ccc(CNc2nccc(C)c2NC(=O)CC#N)cc1 (racemic)	–	54	–	logP [1]: 3.4
COC(=O)C1C2C=CC(CC2)C1c1ccc(CNc2nccc(C)c2NC(=O)CC#N)cc1 (racemic; form 1)	–	142	–	logP [1]: 3.1
COC(=O)C1C2C=CC(CC2)C1c1ccc(CNc2nccc(C)c2NC(=O)CC#N)cc1 (racemic; form 2)	–	38	–	–

More lines, main results first:

logP ([1]; logP)	Ki [2] [nM]	fraction unbound [5]	SMILES	other results
2.4	2	0.08	Cc1noc([C@H]2CC=CC[C@@H]2c2ccc(CNc3nccc(C)c3NC(=O)CC#N)cc2)n1	Vd [3]: 0.47 L/kg; bioavailability [4]: 18%; clearance [6]: 17 mL/min/kg; half-life [7]: 1.2 h
2.5	11	0.01	COC(=O)c1ccccc1-c1ccc(CNc2nccc(C)c2NC(=O)CC#N)cc1	Vd [3]: 0.36 L/kg; bioavailability [4]: 18%; clearance [6]: 4.3 mL/min/kg; half-life [7]: 1.9 h
–	130	–	COC(=O)c1ccccc1N1CC=C(CNc2nccc(C)c2NC(=O)CC#N)CC1	–
3	35	0.04	COC(=O)C1=C(c2ccc(CNc3nccc(C)c3NC(=O)CC#N)cc2)CCCC1	–
2.1	13	0.07	COC(=O)c1ccccc1N1CCC(CNc2nccc(C)c2NC(=O)CC#N)CC1	–
–	126	–	COC(=O)C1=C(c2ccc(CNc3nccc(C)c3NC(=O)CC#N)cc2)CCC1	–
2.5	25	0.01	COC(=O)c1ccccc1C1=CCC(CNc2nccc(C)c2NC(=O)CC#N)CC1 (stereo unspecified)	–
2.7	2.2	0.05	COC(=O)C1CCCCC1c1ccc(CNc2nccc(C)c2NC(=O)CC#N)cc1 (racemic)	Vd [3]: 0.38 L/kg; bioavailability [4]: 4%; clearance [6]: 30 mL/min/kg; half-life [7]: 0.5 h
–	7	–	COC(=O)C1CC=CCC1c1ccc(CNc2nccc(C)c2NC(=O)CC#N)cc1 (racemic; cis)	Protein binding ([5]; serum): 96%; logP [1]: 3.3
2.7	0.83	0.04	COC(=O)C1CC=CCC1c1ccc(CNc2nccc(C)c2NC(=O)CC#N)cc1 (racemic; trans)	Vd [3]: 0.55 L/kg; bioavailability [4]: 5%; clearance [6]: 29 mL/min/kg; half-life [7]: 1 h
–	1.3	–	COC(=O)C1CC=CCC1c1ccc(CNc2nccc(C)c2NC(=O)CC#N)cc1 (single isomer, unassigned; (+))	logP [1]: 2.3
–	1	–	COC(=O)C1CC=CCC1c1ccc(CNc2nccc(C)c2NC(=O)CC#N)cc1 (stereo in doubt; (-)18)	logP [1]: 2.4
